For series [1], the system named is oropharynx (back of the mouth). Briefly: Bioassay: compound applied by glass rod onto the posterior dorsal tongue, oral sensations noted. In kind it is in vivo, human. The settings on record: for sensation from the oral cavity: 2 mg on the posterior third of the tongue; for cooling qualities: in vivo. On the procedure:
CPS-004 and CPS-030 are liquids at room temperatures. These compounds were tested by placing 0, 2, 5 and 8 mg on a 6-inch glass rod and applying these compounds onto the posterior third of the dorsal surface of the tongue. After depositing the test substance, the subject was instructed to keep the mouth closed and allow the test substance to distribute to the back of the mouth (orpharynx). The presence and duration of sensations from the oral cavity was then noted.

The target of another series is TRP-M8 (Homo sapiens, UniProt Q7Z2W7). Particulars: cited from earlier work.
Chain of TRP-M8 (Q7Z2W7 whole entry, species assumed): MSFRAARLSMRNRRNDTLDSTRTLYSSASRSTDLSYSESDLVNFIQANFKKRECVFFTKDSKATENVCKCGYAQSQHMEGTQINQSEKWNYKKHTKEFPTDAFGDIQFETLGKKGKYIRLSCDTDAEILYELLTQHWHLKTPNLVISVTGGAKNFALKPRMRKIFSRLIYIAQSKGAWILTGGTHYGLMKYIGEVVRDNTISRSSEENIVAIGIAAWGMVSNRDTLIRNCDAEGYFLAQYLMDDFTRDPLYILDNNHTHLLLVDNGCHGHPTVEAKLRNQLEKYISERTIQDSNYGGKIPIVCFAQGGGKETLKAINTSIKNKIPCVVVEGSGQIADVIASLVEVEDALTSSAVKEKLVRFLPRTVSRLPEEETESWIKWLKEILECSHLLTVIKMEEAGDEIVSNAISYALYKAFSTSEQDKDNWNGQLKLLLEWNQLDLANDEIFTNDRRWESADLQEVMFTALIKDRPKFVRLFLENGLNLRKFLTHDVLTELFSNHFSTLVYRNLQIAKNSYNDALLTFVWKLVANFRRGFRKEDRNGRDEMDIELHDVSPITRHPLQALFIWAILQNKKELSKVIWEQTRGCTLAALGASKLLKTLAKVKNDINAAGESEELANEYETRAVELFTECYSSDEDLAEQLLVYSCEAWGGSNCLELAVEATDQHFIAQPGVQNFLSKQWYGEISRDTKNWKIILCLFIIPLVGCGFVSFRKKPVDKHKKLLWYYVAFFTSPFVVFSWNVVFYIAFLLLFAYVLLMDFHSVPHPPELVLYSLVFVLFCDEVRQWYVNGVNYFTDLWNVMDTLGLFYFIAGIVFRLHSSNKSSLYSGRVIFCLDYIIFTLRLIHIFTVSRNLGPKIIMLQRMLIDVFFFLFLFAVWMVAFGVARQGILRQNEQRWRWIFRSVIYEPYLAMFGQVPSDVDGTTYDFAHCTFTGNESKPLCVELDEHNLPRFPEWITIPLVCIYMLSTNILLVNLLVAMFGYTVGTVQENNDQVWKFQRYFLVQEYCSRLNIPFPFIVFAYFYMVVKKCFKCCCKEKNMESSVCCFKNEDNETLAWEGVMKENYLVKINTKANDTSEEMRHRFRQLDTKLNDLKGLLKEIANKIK
Another series relates to skin. Particulars: in vivo; cited from earlier work.

With `CC(C)[C@@H]1CC[C@@H](C)C[C@H]1C(=O)OCC(O)CO` (stereo partly shown) [CPS-030], in series [1], the “sensation from the oral cavity” value is reported as “cooling effect on the back of the mouth” and the cooling qualities result was “good cooling qualities”. Also, the taste result in series [1] (applied onto the tongue) is recorded as “acrid taste which was objectionable”.

On to `CC(C)[C@@H]1CC[C@@H](C)C[C@H]1C(=O)OCCO` [CPS-004], for which, in series [1], the “sensation from the oral cavity” value is given as “cooling effect on the back of the mouth” and the cooling qualities result was “good cooling qualities”.

Regarding `COc1ccc(NC(=O)[C@@H]2C[C@H](C)CC[C@H]2C(C)C)cc1` [WS-12], the “potency on TRP-M8 relative to menthol” value at TRP-M8 is 2000 times. Besides, the “cooling action on the skin” value with skin was “does not produce very much cooling action on the skin”.

(Values after patent publication US20100292325A1, “P-MENTHAWE-3-CARBOXYLIC ACID ESTERS TO TREAT AIRWAYS DISEASES” (priority 2007, published 2010).)
